Measurements from patent publication US6329378A, “Hydrazone, hydrazine and thiosemicarbazone derivatives as antifungal agents” (Anadys Pharmaceuticals, Inc., priority 2000, dated 2001).
Values after ≈ are worked out from the molar mass of the structure shown.

How the values were obtained:
C. albicans = assay: MIC, broth microdilution (NCCLS M27-A), C. albicans; assay type: cell-based, Candida albicans; conditions: 48 hours, C. albicans ATCC 10231; for MIC C. albicans: 35° C.; for MIC: Candida albicans, ATCC10231, 35° C.
Method: (§1) Compounds of the invention were tested for antifungal susceptibility using broth microdilution assay established by the National Committee for Clinical Laboratory Standards, in NCCLS Document M27-A, which is hereby incorporated by reference. Minimum inhibitory concentrations (MICs) and minimum fungicidal concentrations (MFCs) were measured.
(§2) Yeasts (Saccharomyces cerevisiae and Candida albicans) are cultured on SDA plates in a 35° C. incubator. Strains on SDA plates are stored at 4° C. and used as working stock cultures.
(§3) Inoculum for susceptibility testing is prepared from fresh 24 hour cultures. 5-10 colonies are scraped from the plate and suspended in three milliliters of sterile 0.85% saline (8.5 g/liter NaCl). The cell density of the solution is determined by measuring the absorbance in a spectrophotometer (Shimadzu UV-1201S UV-VIS Spectrophotometer) set at 600 nm. An absorbance value between 0.1 and 0.4 is required for an accurate reading.
(§4) For Candida albicans strains ATCC 10231, 1.0 OD600 unit is approximately 10^7 cells per ml. For Saccharomyces cerevisiae strain CTY552, 1.0 OD600 unit is slightly less than 10^7 cells per ml. Cell suspensions are diluted with the appropriate medium (typically RPMI-1640) to OD600 =0.0003 for Candida and OD600 =0.0004 for Saccharomyces. The diluted suspension contains approximately 3×10^3 cells per ml (this is a 2×concentration inoculum). Two 100 μl aliquots of this dilution are spread on SDA plates and incubated at 35° C. for 1-2 days to determine the precise number of colony forming units. An acceptable range for the inoculum (2×) is 1-5×10^3 cfu/ml (100-500 for 100 μl). Following two-fold dilution of the inoculum with compound, the final concentration of cells will be 0.5-2.5×10^3 per ml. The inoculum is kept at 4° C. and used within a few hours.
(§5) Stock solutions and concentrations tested will vary from compound to compound. In general, though, stock solutions of 12.8 mg/ml in DMSO (Sigma D-8779) are prepared. This will allow for a 128 μg/ml starting test concentration containing 1% DMSO. Stock solutions are stored at -20° C. and dilutions for antifungal testing are freshly prepared before each assay.
(§6) Stock solutions of Amphotericin B and Itraconazole are prepared at 1.6 mg/ml in DMSO. Amphotericin B is sold as a powder that is approximately 80% Amphotericin B. Stock solutions are made accordingly (2.0 mg of powder for a 1 ml solution of 1.6 mg/ml Amphotericin B).
(§7) Both of these (control and test compounds) represent 1:50 dilutions. For an assay with three fungal strains, 40 microliters of a stock solution are diluted to 2.0 ml with room temperature medium.
(§8) Antifungal susceptibility tests are setup in polystyrene, 96-well, flat bottom plates (Costar 9017). To every well in columns 2-12 is added 100 microliters of media. An electronic multichannel (12) pipettor with no tip on channel one is used. To every well in column one is added 200 microliters of diluted compound (32 μg/ml for Amphotericin B and Itraconazole controls, 256 μg/ml for test compounds, 100-fold dilution for natural product extracts). A manual multichannel (8) pipettor is then used to set up a series of 2-fold dilutions. 100 microliters is removed from each well of column one and mixed with 100 microliters in column 2. This is done successively (column two to column three etc.) to produce a set of 11 serial dilutions (column 12 is a drug free control).
(§9) To every well in two rows, 100 μl of inoculum (2×) of a single strain is added. To the final two rows on the plate (G & H), only media is added. Addition of inoculum is best accomplished using an electronic multichannel (12) pipettor. This setup (see below) creates a starting cell density of […] (100-500 per well) and drug concentration ranging from 16 μg/ml to […] for controls (Amphotericin B and Itraconazole), 128 μg/ml to 0.125 μg/ml for pure test compounds, and 200 to 204, 800-fold dilutions for natural product extracts.

S. serevisiae = assay: MIC, broth microdilution (NCCLS M27-A), S. cerevisiae; assay type: cell-based, Saccharomyces cerevisiae; conditions: for MIC S. serevisiae: broth microdilution, 35° C., 48 hours, S. cerevisiae CTY552; for MIC: Saccharomyces cerevisiae, 48 h, read-out: MIC S. serevisiae
Method: as §1, §2, §3, §4, §5, §6
Stock solutions of control compounds (1.6 mg/ml, Amphotericin B or Itraconazole) are initially diluted in medium to a concentration of 32 μg/ml while stock solutions of test compounds (typically 12.8 mg/ml) are diluted to 256 μg/ml. Both of these (control and test compounds) represent 1:50 dilutions. For an assay with three fungal strains, 40 microliters of a stock solution are diluted to 2.0 ml with room temperature medium.
as §8
To every well in two rows, 100 μl of inoculum (2×) of a single strain is added. To the final two rows on the plate (G & H), only media is added. Addition of inoculum is best accomplished using an electronic multichannel (12) pipettor. […]

A. Nidulans = assay: MIC, broth microdilution (NCCLS M27-A), A. nidulans; assay type: cell-based; conditions: 35° C., 48 hours; for MIC: Aspergillus nidulans
Method: as §1
Filamentous fungi (Aspergillus spp.) is cultured on PDA plates in a 35° C. incubator. Inoculum of Aspergillus for susceptibility testing is prepared from plates incubated at 35° C. for 5 days. Colonies are covered with 5 ml of sterile 0.85% saline (8.5 g/liter NaCl) and gently rocked for 10-15 minutes. To dislodge the conidia, an automatic pipettor is used to gently wash over the colonies. The saline solution is removed from the plate and the heavy particles are allowed to settle for 3-5 minutes. The upper suspension is removed and vortexed for 15 sec. The turbidity of the solution is determined by measuring the absorbance in a spectrophotometer (Shimadzu UV-1201S UV-VIS Spectrophotometer) set at 600 nm. An absorbance value between 0.1 and 0.4 is required for an accurate reading.
The cell suspension is diluted with the appropriate medium (typically RPMI-1640) to OD600 =0.0004. The final suspension should contain approximately 3×10^3 cfu per ml (this is a 2×concentrationinoculum). Two 100 μl aliquots of this dilution are spread on SDA plates and incubated at 35° C. for 1-2 days to determine the precise number of colony forming units. An acceptable range for the inoculum (2×) is 1-5×10^3 cfu/ml (100-500 for 100 μl). Following two-fold dilution of the inoculum with compound, the final concentration of cells will be 0.5-2.5×10^3 per ml. The inoculum is kept at 4° C. and used within a few hours.
as §5, §6, §7, §8, §9

Compound	MIC C. albicans (C. albicans)	MIC S. serevisiae (S. serevisiae)	MIC A. Nidulans (A. Nidulans)	MIC (C. albicans)	MIC (S. serevisiae)	MIC (A. Nidulans)
3-carboxyl-2-hydroxybenzaldehyde-N-(3-methoxy-2-phenyl)hydrazine [(17)]	> 128 µg/mL	> 128 µg/mL	> 128 µg/mL			
Cc1c(Cl)cccc1NN=Cc1cc(C(=O)O)ccc1O [(29), 5-carboxyl-2-hydroxybenzaldehyde-N-3-chloro-2-methyl-phenyl hydrazone]				1 µg/mL (≈ 3.28 µM)	1 µg/mL (≈ 3.28 µM)	1 µg/mL (≈ 3.28 µM)
COc1nccnc1NN=Cc1cccc(O)c1O [(6)]				2 µg/mL (≈ 7.68 µM)	1 µg/mL (≈ 3.84 µM)	1 µg/mL (≈ 3.84 µM)
O=C(O)c1ccc(O)c(C=NNc2cccc(F)c2)c1 [(23), 5-carboxyl-2-hydroxybenzaldehyde-N-3-fluorophenyl hydrazone]				2 µg/mL (≈ 7.29 µM)	2 µg/mL (≈ 7.29 µM)	0.125 µg/mL (≈ 0.456 µM)
Oc1cc(OCc2ccccc2)ccc1/C=N/NC(=S)Nc1ccc(Cl)cc1 [(45), N-[(4-chloro-phenyl)]-2-[(E)-(4-benzyloxy-2-hydroxyphenyl)methylidene]-1-hydrazonecarbothiamide]				1 µg/mL (≈ 2.43 µM)	0.5 µg/mL (≈ 1.21 µM)	0.5 µg/mL (≈ 1.21 µM)
O=C(O)c1ccc(COc2ccc(/C=N/NC(=S)Nc3ccc(Cl)cc3)c(O)c2)cc1 [(47), N-[(4-chloro-phenyl)]-2-[(E)-(4-carboxyl-benzyloxy-2-hydroxyphenyl)methylidene]-1-hydrazonecarbothiamide]				2 µg/mL (≈ 4.39 µM)	1 µg/mL (≈ 2.19 µM)	0.5 µg/mL (≈ 1.1 µM)
O=C(O)c1ccc(O)c(C=NNc2ccccc2OC(F)(F)F)c1 [(21), 5-carboxyl-2-hydroxybenzaldehyde-N-2-trifluoromethyloxy-phenyl hydrazone]				2 µg/mL (≈ 5.88 µM)	1 µg/mL (≈ 2.94 µM)	1 µg/mL (≈ 2.94 µM)
Cc1cc(C)cc(NC(=S)N/N=C/c2ccc(OCc3ccccc3)cc2O)c1 [(50)]	1 µg/mL (≈ 2.47 µM)	0.5 µg/mL (≈ 1.23 µM)	0.5 µg/mL (≈ 1.23 µM)			
Fc1ccc(NC(=S)N/N=C/c2ccccn2)cc1 [(39)]				2 µg/mL (≈ 7.29 µM)	2 µg/mL (≈ 7.29 µM)	4 µg/mL (≈ 14.6 µM)
Oc1ccccc1CNNc1ccccc1 [(32)]				1 µg/mL (≈ 4.67 µM)	2 µg/mL (≈ 9.33 µM)	0.125 µg/mL (≈ 0.583 µM)
2-pyridyl-benzaldehyde-N-(3-methoxy-2-pyrazinyl)hydrazine [(34)]	2 µg/mL	1 µg/mL	1 µg/mL			
O=C(O)c1ccc(O)c(C=NNc2ccccc2C(=O)O)c1 [(22), 5-carboxyl-2-hydroxybenzaldehyde-N-2-carboxyl-phenyl hydrazone]				> 64 µg/mL	> 64 µg/mL	> 64 µg/mL
COc1cc(O)c(C=NNc2nccnc2OC)c(OC)c1 [(5)]				1 µg/mL (≈ 3.29 µM)	1 µg/mL (≈ 3.29 µM)	2 µg/mL (≈ 6.57 µM)
O=C(O)c1ccc(O)c(C=NNc2ccccc2Cl)c1 [(26), 5-carboxyl-2-hydroxybenzaldehyde-N-2-chlorophenyl hydrazone]				2 µg/mL (≈ 6.88 µM)	1 µg/mL (≈ 3.44 µM)	0.5 µg/mL (≈ 1.72 µM)
O=C(O)c1ccc(O)c(C=NNc2ccccc2)c1 [(18), 5-carboxyl-2-hydroxybenzaldehyde-N-phenyl hydrazone]				1 µg/mL (≈ 3.9 µM)	1 µg/mL (≈ 3.9 µM)	0.125 µg/mL (≈ 0.488 µM)
O=C(O)c1ccc(O)c(C=NNc2ccccc2Br)c1 [(25), 5-carboxyl-2-hydroxybenzaldehyde-N-2-bromophenyl hydrazone]				2 µg/mL (≈ 5.97 µM)	2 µg/mL (≈ 5.97 µM)	1 µg/mL (≈ 2.98 µM)
Cc1cccc(NN=Cc2cc(C(=O)O)ccc2O)c1 [(27), 5-carboxyl-2-hydroxybenzaldehyde-N-3-methyl-phenyl hydrazone]				1 µg/mL (≈ 3.7 µM)	1 µg/mL (≈ 3.7 µM)	0.25 µg/mL (≈ 0.925 µM)
N-[(4-dimethylamino)sulfonyl-N-piperidyl)phenyl)]-2-[(E)-(4-benzyloxy-2-hydroxyphenyl)methylidene]-1-hydrazonecarbothiamide [(52)]	> 64 µg/mL		> 64 µg/mL			
O=C(O)c1ccc(O)c(C=NNc2cccc([N+](=O)[O-])c2)c1 [(20), 5-carboxyl-2-hydroxybenzaldehyde-N-3-nitro-phenyl hydrazone]				8 µg/mL (≈ 26.6 µM)	16 µg/mL (≈ 53.1 µM)	2 µg/mL (≈ 6.64 µM)
COc1ccccc1NN=Cc1cc(C(=O)O)ccc1O [(28), 5-carboxyl-2-hydroxybenzaldehyde-N-2-methoxy-phenyl hydrazone]				1 µg/mL (≈ 3.49 µM)	1 µg/mL (≈ 3.49 µM)	0.25 µg/mL (≈ 0.873 µM)
O=C(O)c1ccc(O)c(C=NNc2ccccc2F)c1 [(24), 5-carboxyl-2-hydroxybenzaldehyde-N-2-fluoro-phenyl hydrazone]				0.25 µg/mL (≈ 0.912 µM)	0.5 µg/mL (≈ 1.82 µM)	0.063 µg/mL (≈ 0.23 µM)
FC(F)(F)c1cc(NC(=S)N/N=C/c2ccccn2)cc(C(F)(F)F)c1 [(37)]				0.5 µg/mL (≈ 1.27 µM)	1 µg/mL (≈ 2.55 µM)	1 µg/mL (≈ 2.55 µM)
S=C(N/N=C/c1ccccn1)Nc1ccccc1 [(41)]				> 128 µg/mL	> 128 µg/mL	> 128 µg/mL
Oc1ccccc1/C=N/NC(=S)Nc1cccc(F)c1 [(40)]				32 µg/mL (≈ 111 µM)	2 µg/mL (≈ 6.91 µM)	> 128 µg/mL
COc1nccnc1NNCc1ccccc1O [(33)]				2 µg/mL (≈ 8.12 µM)	1 µg/mL (≈ 4.06 µM)	4 µg/mL (≈ 16.2 µM)
COc1nccnc1NN=Cc1ccc(O)cc1O [(7)]				1 µg/mL (≈ 3.84 µM)	1 µg/mL (≈ 3.84 µM)	2 µg/mL (≈ 7.68 µM)
Oc1ccccc1C=NNc1ccccc1 [(19), 2-hydroxybenzaldehyde-N-phenyl hydrazone]				1 µg/mL (≈ 4.71 µM)	1 µg/mL (≈ 4.71 µM)	0.125 µg/mL (≈ 0.589 µM)
COc1nccnc1N/N=C/c1ccc2ccccc2n1 [(9)]				8 µg/mL (≈ 28.6 µM)	8 µg/mL (≈ 28.6 µM)	16 µg/mL (≈ 57.3 µM)
N-[(3-trifluoromethyl)phenyl)]-2-[(E)-(4-allyl-phenyl)-benzyloxy-2-hydroxyphenyl)methylidene]-1-hydrazonecarbothiamide [(44)]	8 µg/mL	2 µg/mL	2 µg/mL			
